“Also recorded” adds a separate entry of the source.
Assays:
[1] = system: SARM1-expressing cells; experiment: protection from SARM1-mediated toxicity, cell viability by CellTiter-Glo; type: cell-based; conditions: 0.1, 0.3, 1, 3, 10, and 30 μM, 24 hours, FIG. 4
Experimental: SARM1-expressing cells were treated with compound NSC at 0.1, 0.3, 1, 3, 10, and 30 μM. After 24 hours, the cell images in bright field were taken under the microscope before cell viability was determined by measuring ATP levels using CellTiter-Glo assay kit.
In the first assay, the compounds were added at 1, 3, 10, 30 and 100 μM in the reaction mixture. The reaction rate of NMNAT2 enzyme was calculated as the slope of the F340/445 versus time curve, and was normalized by DMSO-treated control. The dose response curves were plotted to assess the effects of individual compounds on NMNAT2 enzymatic activity. […] After 24 hours, the cell survival was measured by Cell-titer Glo kit, and normalized by DMSO-treated control. […]
Compounds NSC and 1-40 were evaluated in two independent assays: an in vitro enzyme assay measuring activation of NMNAT2 and a cell-based assay measuring the degree of protection from SARM1 expression in cells. […] The conversion of NMN to NADH was monitored by measuring fluorescence intensity of NADH at an excitation of 340 nm and an emission of 445 nm (Y axis) as a function of time (X axis). Fluorescence at ex340 nm/em445 nm (F340/445) was measured continuously for 30 minutes at room temperature to establish the reaction velocity. The reaction rate of NMNAT2 enzyme was expressed as the concentration of NADH (equivalent to NAD) formed per minute. […]

[2] = biological target: NMNAT3 (Homo sapiens, UniProt Q96T66); experiment: doubly coupled enzyme assay prepared for NMNAT3; type: biochemical; conditions: 3 μM compound, FIG. 3, NMNAT isoform comparison
Experimental: (§1) A doubly coupled enzyme assay was prepared for NMNAT1, NMNAT2 and NMNAT3. NMNAT activation is normalized, where the reaction rate of NMNAT in the presence of 3 μM of compound NSC was compared to that of a DMSO-treated control.
(§2) These compounds might represent direct activators of the NMNAT2 enzyme.

[3] = biological target: NMNAT2 (Homo sapiens, UniProt Q9BZQ4); experiment: doubly coupled NMNAT2 enzyme assay (NMNAT2 + ADH, NADH fluorescence); type: biochemical
Experimental: In a doubly coupled enzyme assay, the first enzyme NMNAT2 (it converted NMN to NAD) and the second enzyme ADH (it converted NAD to NADH) as well as compound NSC at a concentration of 3 μM were used, and the conversion of NMN to NADH was monitored by measuring fluorescence intensity of NADH at an excitation of 340 nm and an emission of 445 nm (Y axis) as a function of time (X axis).
A high-throughput screen was performed in search of compounds capable of activating NMNAT2, an important NAD biosynthetic enzyme. Roughly 50,000 synthetic organic chemicals were tested in a doubly coupled NMNAT assay that contains two enzymes, NMNAT2 and alcohol dehydrogenase (ADH). […] The conversion of NMN to NADH was monitored by measuring fluorescence intensity of NADH at an excitation of 340 nm and an emission of 445 nm (Y axis) as a function of time (X axis). Fluorescence at ex340 nm/em445 nm (F340/445) was measured continuously for 30 minutes at room temperature to establish the reaction velocity. […] The reaction rate is expressed as the concentration of NADH (equivalent to NAD) formed per minute. Since the concentration of NADH is reflected by F340/445, the reaction rate is thus the slope of the linear kinetic curve of F340/445 versus time at time t, written as F340 445/min, which is calculated in the equation: reaction rate=ΔF340/445/Δt. […]

[4] = system: CIPN mice model; experiment: paclitaxel-induced CIPN mouse model, Von Frey test; type: in vivo
From the text: The procedure of CIPN mouse model and treatment regimen is shown in the upper panel.
Chemotherapy-induced peripheral neuropathy (CIPN) arises from the peripheral nerve damage by anticancer pharmacotherapy, leading to a progressive, enduring, and debilitating condition featuring pain, numbness, tingling and sensitivity to cold in the hands and feet. CIPN afflicts between 30% and 40% of patients undergoing chemotherapy, but currently no effective treatment for CIPN exists (del Pino BM, 2010). Chemotherapy drugs associated with CIPN include the antimitotic drugs such as paclitaxel and vinblastine, which are widely used for the treatment of a variety of cancer. To evaluate the neuroprotective efficacy of the compounds in vivo, we developed an aggressive CIPN mice model as presented in FIG. 5.
Mice were daily administrated with compound 20, at doses of 6, 2, 0.6 and 0 mg/kg (5 animals per group, i.p.) from one week prior to the initiation of paclitaxel (D-7) to 8th day after the initiation of paclitaxel (D8). After one-week pre-dosing with compound 20, mice were injected intraperitoneally with paclitaxel at a dose of 2 mg/kg on 4 alternate days (Day 0, 2, 4, 6). The Von Frey test was conducted the other day after the last administration of paclitaxel. […] Mice were daily administrated with compound NSC, at doses of 1, 3, and 10 mg/kg (5-6 animals per group, i.p.) from one week prior to the initiation of taxol (paclitaxel) (D-7) to 8th day after the initiation of paclitaxel (D8). After one-week pre-dosing with compound NSC, mice were injected intraperitoneally with paclitaxel at a dose of 2 mg/kg on 4 alternate days (Day 0, 2, 4, 6). The Von Frey test was conducted the other day after the last administration of taxol (paclitaxel).

[5] = system: alcohol dehydrogenase (ADH); experiment: ADH enzyme assay with NAD as substrate (counter-screen); type: biochemical; conditions: 5 μM compound, 50 μM NAD
Experimental: In a secondary screen, the compounds with the relative reaction rate higher than 150% are cherry-picked and retested in triplicates in the doubly coupled NMNAT2 assay. […] Briefly, the ADH enzyme reaction was prepared to contain 50 mM Tris-Cl (pH 8.0), 12 mM MgCl2, 1.5% ethanol, 10 mM semicarbizide, 0.2% bovine serum albumin (BSA), and 0.04 units ADH. 40 µl of the mixture was dispensed into 384-well black polypropylene plates, and individual compounds were added to each well at a final concentration of 5 μM. The reaction was initiated by addition of 50 μM NAD followed by gentle mixing in the plate. The conversion of NAD to NADH was monitored by measuring fluorescence intensity of NADH at an excitation of 340 nm and an emission of 445 nm (Y axis) as a function of time (X axis). Fluorescence at ex340 nm/em445 nm was measured continuously for 30 minutes to establish the kinetic reaction curve of F340/445 versus time. The reaction rates were calculated as described in the NMNAT2 assay. The relative ADH enzyme reaction rate in the presence of each compound is normalized by DMSO-treated control.

[6] = biological target: NMNAT1 (Homo sapiens, UniProt Q9HAN9); experiment: doubly coupled enzyme assay prepared for NMNAT1; type: biochemical; conditions: 3 μM compound, FIG. 3, NMNAT isoform comparison
Experimental: as §1, §2

NMNAT2, sequence (Q9BZQ4 whole entry, species assumed): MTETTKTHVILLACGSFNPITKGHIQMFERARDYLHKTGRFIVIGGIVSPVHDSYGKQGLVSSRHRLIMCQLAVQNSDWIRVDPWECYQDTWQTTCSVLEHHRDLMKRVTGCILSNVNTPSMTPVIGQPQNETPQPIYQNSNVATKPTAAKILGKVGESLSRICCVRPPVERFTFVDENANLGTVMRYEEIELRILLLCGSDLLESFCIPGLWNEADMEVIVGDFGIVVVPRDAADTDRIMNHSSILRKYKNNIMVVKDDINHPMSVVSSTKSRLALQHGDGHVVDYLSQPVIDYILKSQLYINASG
NMNAT1, sequence (Q9HAN9 whole entry, species assumed, canonical isoform): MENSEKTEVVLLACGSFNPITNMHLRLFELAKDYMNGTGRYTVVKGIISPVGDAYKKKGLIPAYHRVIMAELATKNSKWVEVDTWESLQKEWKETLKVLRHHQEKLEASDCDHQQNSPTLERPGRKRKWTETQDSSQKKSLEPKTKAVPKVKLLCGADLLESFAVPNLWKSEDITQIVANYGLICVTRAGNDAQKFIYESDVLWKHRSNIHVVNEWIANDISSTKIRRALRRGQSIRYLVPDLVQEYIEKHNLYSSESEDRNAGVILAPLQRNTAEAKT
NMNAT3, sequence (Q96T66 whole entry, species assumed, canonical isoform): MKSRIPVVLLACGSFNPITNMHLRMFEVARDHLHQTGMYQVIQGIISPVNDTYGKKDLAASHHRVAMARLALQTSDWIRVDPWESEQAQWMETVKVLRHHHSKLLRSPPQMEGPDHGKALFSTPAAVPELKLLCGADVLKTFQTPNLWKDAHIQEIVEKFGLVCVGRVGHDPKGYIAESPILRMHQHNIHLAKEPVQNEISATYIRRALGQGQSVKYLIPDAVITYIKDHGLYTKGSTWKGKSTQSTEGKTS

| Compound | protection of cultured cells against SARM1-mediated toxicity (cell viability, ATP levels) [1] | NMNAT3 activation (reaction rate compared to DMSO-treated control) [2] | NMNAT2 activation (reaction rate compared to DMSO-treated control) ([3]; 3 μM compound, FIG. 3, NMNAT isoform comparison) | level of activation in the doubly coupled NMNAT2 assay ([3]; high-throughput screen hits, FIG. 2 with compound at 3 μM) | mice paw pressure threshold (Von Frey test) ([4]; 3 mg/kg/day i.p., D-7 to D8, paclitaxel 2 mg/kg on days 0, 2, 4, 6, FIG. 6) | mice paw pressure threshold (Von Frey test) ([4]; 10 mg/kg/day i.p., D-7 to D8, paclitaxel 2 mg/kg on days 0, 2, 4, 6, FIG. 6) | mice paw pressure threshold (Von Frey test) ([4]; FIG. 6 legend, dose not stated there) | activity in the ADH assay (relative ADH enzyme reaction rate) [5] | NMNAT1 activation (reaction rate compared to DMSO-treated control) [6] | mice paw pressure threshold (Von Frey test) ([4]; 6 mg/kg/day i.p., D-7 to D8, paclitaxel 2 mg/kg on days 0, 2, 4, 6, FIG. 5) |
| --- | --- | --- | --- | --- | --- | --- | --- | --- | --- | --- |
| C/C(=N\NC(=S)N1CCC1)c1ccccn1 [Compound NSC, (E)-N′-(1-(pyridin-2-yl)ethylidene)azetidine-1-carbothiohydrazide] | protects cultured cells against SARM1-mediated toxicity | not NMNAT3 | activated NMNAT2 strongly; also recorded: activates NMNAT2 | most robust level of activation; also recorded: NMNAT2 activation | significantly increased the mice paw pressure threshold | significantly increased the mice paw pressure threshold | significantly increased the mice paw pressure threshold | inactive in the ADH assay | NMNAT1 weakly; also recorded: activates NMNAT2 and NMNAT1 |  |
| C/C(=N\NC(=S)NN)c1ccccn1 [Compound 20, (E)-N′-(1-(pyridin-2-yl)ethylidene)hydrazinecarbothiohydrazide] |  |  |  |  |  |  |  |  |  | significantly increased the mice paw pressure threshold |
